The text below walks through data of ChEMBL document CHEMBL1124419, “Potential tumor- or organ-imaging agents. 29. Radioiodinated esters and amides of 20-hydroxy- and 20-aminopregn-5-en-3 beta-ols” (J Med Chem, 1989).

Settings in all cases: in vivo
For data set [1], the system named is Rattus norvegicus. As to the kind of experiment: Concentration accumulated in thyroid at 0.5 hr after intravenous administration in rat. It is filed as ADME, organism-based, Thyroid gland.
The subject of data set [2] is Rattus norvegicus. As to the kind of experiment: Concentration accumulated in thyroid at 24 hr r after intravenous administration in rat. The format is ADME, organism-based, Thyroid gland.
Data set [3] deals with Rattus norvegicus. The data set can be described thus: Concentration accumulated in adrenal cortex at 24 hr r after intravenous administration in rat. The format is ADME, organism-based.
For data set [4], the system named is Rattus norvegicus. The data set can be described thus: Concentration accumulated in blood at 0.5 hr after intravenous administration in rat. The format is ADME, organism-based.
For data set [5], the system named is Rattus norvegicus. As to the kind of experiment: Concentration accumulated in blood at 24 hr r after intravenous administration in rat. It is filed as ADME, organism-based.
The test system of data set [6] is Rattus norvegicus. As to the kind of experiment: Concentration accumulated in kidney at 0.5 hr after intravenous administration in rat. The format is ADME, organism-based.
The subject of data set [7] is Rattus norvegicus. The data set can be described thus: Concentration accumulated in kidney at 24 hr r after intravenous administration in rat. The format is ADME, organism-based.
For data set [8], the system named is Rattus norvegicus. The data set can be described thus: Concentration accumulated in liver at 0.5 hr after intravenous administration in rat. It is filed as ADME, organism-based.
Data set [9] deals with Rattus norvegicus. As to the kind of experiment: Concentration accumulated in liver at 24 hr r after intravenous administration in rat. The format is ADME, organism-based.
The subject of data set [10] is Rattus norvegicus. As to the kind of experiment: Concentration accumulated in ovary at 0.5 hr after intravenous administration in rat. The format is ADME, organism-based, Female gonad.
Data set [11] has as its system Rattus norvegicus. As to the kind of experiment: Concentration accumulated in ovary at 24 hr r after intravenous administration in rat. It is filed as ADME, organism-based, Female gonad.
In data set [12] the test system is Rattus norvegicus. As to the kind of experiment: Concentration accumulated in adrenal cortex at 0.5 hr after intravenous administration in rat. It is filed as ADME, organism-based.

Each structure is given as a SMILES string.

For the compound `C[C@@H](NC(=O)c1ccccc1I)C1CCC2C3CC=C4CC(O)CCC4(C)C3CCC21C` (stereo not given in full), the Dose/g is listed as 1.4% in the data set on Rattus norvegicus [1]; 24.65% in the data set on Rattus norvegicus [2]; 0.55% with Rattus norvegicus [3]; 0.08% in the data set on Rattus norvegicus [4]; less than 0.01% with Rattus norvegicus [5]; 0.47% in the data set on Rattus norvegicus [6]. Also, the Dose/g in the data set on Rattus norvegicus [7] amounted to 0.02%; in the data set with Rattus norvegicus [8], 1.28%; with Rattus norvegicus [9], 0.22%; in the data set with Rattus norvegicus [10] it was 0.53%; with Rattus norvegicus [11], 0.07%; in the data set on Rattus norvegicus [12] it was 1.66%.

Regarding `CC(C)CCCC(C)C1CCC2C3CC(CI)C4=C(CCC(O)C4)C3CCC12C` (stereo not given), the Dose/g in the data set with Rattus norvegicus [1] worked out at 1.37%; in the data set with Rattus norvegicus [2] it was 111.3%; with Rattus norvegicus [3], 116.21%; in the data set on Rattus norvegicus [4], 2.35%; with Rattus norvegicus [5], 0.87%; with Rattus norvegicus [6] it was 0.45%. Moreover, the Dose/g amounted to 0.76% in the data set with Rattus norvegicus [7]; 4.57% in the data set on Rattus norvegicus [8]; 1.34% in the data set on Rattus norvegicus [9]; 4.1% with Rattus norvegicus [10]; 33.1% with Rattus norvegicus [11]; 17.89% in the data set on Rattus norvegicus [12].

Regarding `C[C@H](OC(=O)c1ccccc1I)C1CCC2C3CC=C4CC(O)CCC4(C)C3CCC21C` (stereo not given in full), the Dose/g with Rattus norvegicus [1] stood at 4.96%; in the data set on Rattus norvegicus [2], 511.17%; in the data set with Rattus norvegicus [3], 0.31%; with Rattus norvegicus [4], 0.59%; in the data set on Rattus norvegicus [5] it was 0.05%; with Rattus norvegicus [6] it was 1.29%. For the same compound, the Dose/g in the data set with Rattus norvegicus [7] turned out to be 0.11%; with Rattus norvegicus [8], 3.92%; with Rattus norvegicus [9] it was 0.2%; with Rattus norvegicus [10] it was 1.49%; in the data set with Rattus norvegicus [11], 0.26%; in the data set on Rattus norvegicus [12], 10.04%.

As for `C[C@H](NC(=O)c1ccccc1I)C1CCC2C3CC=C4CC(O)CCC4(C)C3CCC21C` (stereo not given in full), the Dose/g in the data set with Rattus norvegicus [1] is reported as 2.2%; with Rattus norvegicus [2], 51.14%; in the data set with Rattus norvegicus [3], 0.1%; with Rattus norvegicus [4] it was 0.1%; in the data set with Rattus norvegicus [5], less than 0.01%; with Rattus norvegicus [6], 0.41%. Besides, the Dose/g in the data set with Rattus norvegicus [7] is given as 0.01%; in the data set with Rattus norvegicus [8], 3.85%; in the data set with Rattus norvegicus [9] it was 0.06%; with Rattus norvegicus [10], 0.58%; with Rattus norvegicus [11], 0.09%; with Rattus norvegicus [12], 2.49%.

`C[C@@H](OC(=O)c1ccccc1I)C1CCC2C3CC=C4CC(O)CCC4(C)C3CCC21C` (stereo not given in full): the Dose/g in the data set with Rattus norvegicus [1] amounted to 2.93%; in the data set on Rattus norvegicus [2], 52.36%; with Rattus norvegicus [3], 1.23%; in the data set with Rattus norvegicus [4], 0.25%; with Rattus norvegicus [5], 0.02%; in the data set with Rattus norvegicus [6], 1.59%. Further, the Dose/g turned out to be 0.05% in the data set on Rattus norvegicus [7]; 6.04% in the data set with Rattus norvegicus [8]; 0.11% in the data set on Rattus norvegicus [9]; 1.67% with Rattus norvegicus [10]; 0.26% in the data set with Rattus norvegicus [11]; 6.83% in the data set with Rattus norvegicus [12].
